Measurements reported in patent US10745382B2 (BRISTOL-MYERS SQUIBB COMPANY, priority 2015, dated 2020).
Counter-ions that a name gives are not always drawn. Like-named read-outs stand apart in the source and are kept apart here.

Target: T1, PD-1/PD-L1 (Homo sapiens, UniProt Q9NZQ7)
T1 construct: made in house; host or cells: HEK293T
Test: PD-1/PD-L1 Homogenous Time-Resolved Fluorescence (HTRF) binding assay
Details: PD-L1-His 10 nM, PD-1-Ig 20 nM, read-out: Range or IC50
Outline: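 dPBS + 0.1% BSA + 0.05% Tween-20 buffer; Eu-cryptate anti-Ig 1 nM final, APC anti-His 20 nM final; HTRF read. Counter-assays: PD-1-Ig/PD-L2-His 20 & 5 nM, CD80-His/PD-L1-Ig 100 & 10 nM.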

T1 sequence (Q9NZQ7 with tags, fused parts or gaps): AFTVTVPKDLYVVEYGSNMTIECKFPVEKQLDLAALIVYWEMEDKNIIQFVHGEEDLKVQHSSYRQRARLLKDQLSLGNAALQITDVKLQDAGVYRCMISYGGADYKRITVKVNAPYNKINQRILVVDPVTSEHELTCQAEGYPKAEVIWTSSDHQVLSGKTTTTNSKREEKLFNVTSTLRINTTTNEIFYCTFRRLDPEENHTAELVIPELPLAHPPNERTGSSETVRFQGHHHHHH

SMILES	IC50 (value given as range class) [nM]	IC50 (numeric IC50) [nM]
Cc1ccc(OCCCN2CC[C@@H](O)C2)c(C)c1-c1cccc(COc2cc(OCc3cncc(C#N)c3)c(C=O)cc2Cl)c1C [Example 3027, 5-((4-chloro-2-formyl-5-((3′-(3-((R)-3-hydroxypyrrolidin-1-yl)propoxy)-2,2′,6′-trimethyl-[1,1′-biphenyl]-3-yl)methoxy)phenoxy)methyl)nicotinonitrile]	10 to 100	
Cc1c(COc2cc(OCc3cncc(C#N)c3)c(CN3CCCC[C@H]3C(=O)O)cc2Cl)cccc1-c1cccc(OCCCN(C)Cc2cccnc2)c1C [Example 2226, (2S)-1-(5-chloro-2-((5-cyanopyridin-3-yl)methoxy)-4-((2,2′-dimethyl-3′-(3-(methyl(pyridin-3-ylmethyl)amino)propoxy)biphenyl-3-yl)methoxy)benzyl)piperidine-2-carboxylic Acid]	0.21 to 10	
Cc1c(COc2cc(OCc3cncc(C#N)c3)c(CN[C@@](C)(CO)C(=O)O)cc2Cl)cccc1-c1cccc(OCCCN2CCC(NC(=O)C(F)(F)F)C2)c1C (stereo partly drawn) [Example 2274, (2S)-2-((5-chloro-2-((5-cyanopyridin-3-yl)methoxy)-4-((2,2′-dimethyl-3′-(3-(3-(2,2,2-trifluoroacetamido)pyrrolidin-1-yl)propoxy)-[1,1′-biphenyl]-3-yl)methoxy)benzyl)amino)-3-hydroxy-2-methylpropanoic Acid]	0.21 to 10	
Cc1c(COc2cc(OCc3cncc(C#N)c3)c(CN3CCCC[C@H]3C(=O)O)cc2Cl)cccc1-c1cccc(OCCCN2CCCCC2CC(=O)O)c1C (stereo partly drawn) [Example 2251, (2S)-1-(4-((3′-(3-(2-(carboxymethyl)piperidin-1-yl)propoxy)-2,2′-dimethylbiphenyl-3-yl)methoxy)-5-chloro-2-((5-cyanopyridin-3-yl)methoxy)benzyl)piperidine-2-carboxylic Acid]	0.21 to 10	
Cc1cc(OCc2cccc(-c3cccc(OCCCN4CC[C@@H](O)C4)c3C)c2C)cc(OCc2cncc(C#N)c2)c1CNC(C)(CO)CO [Example 4088, (R)-5-((2-(((1,3-dihydroxy-2-methylpropan-2-yl)amino)methyl)-5-((3′-(3-(3-hydroxypyrrolidin-1-yl)propoxy)-2,2′-dimethyl-[1,1′-biphenyl]-3-yl)methoxy)-3-methylphenoxy)methyl)nicotinonitrile]	0.21 to 10	
Cc1c(COc2cc(OCc3cncc(C#N)c3)c(CN3CCCC[C@H]3C(=O)O)cc2Cl)cccc1-c1cccc(OCCCN2CCC(C(=O)O)CC2)c1C [Example 2364, (S)-1-(4-((3′-(3-(4-carboxypiperidin-1-yl)propoxy)-2,2′-dimethyl-[1,1′-biphenyl]-3-yl)methoxy)-5-chloro-2-((5-cyanopyridin-3-yl)methoxy)benzyl)piperidine-2-carboxylic Acid]	0.21 to 10	
Cc1c(COc2cc(OCc3cncc(C#N)c3)c(CN3CCCC[C@H]3C(=O)O)cc2Cl)cccc1-c1cccc(CN(C)CCN2CCS(=O)(=O)CC2)c1C [Example 4079, (S)-1-(5-chloro-2-((5-cyanopyridin-3-yl)methoxy)-4-((3′-(((2-(1,1-dioxidothiomorpholino)ethyl)(methyl)amino)methyl)-2,2′-dimethyl-[1,1′-biphenyl]-3-yl)methoxy)benzyl)piperidine-2-carboxylic Acid]		73
Cc1cc(OCc2cccc(-c3cccc(OCCCN4CC[C@@H](O)C4)c3C)c2C)cc(OCc2cncc(C#N)c2)c1CN(CCO)CCO [Example 4090, (R)-5-((2-((bis(2-hydroxyethyl)amino)methyl)-5-((3′-(3-(3-hydroxypyrrolidin-1-yl)propoxy)-2,2′-dimethyl-[1,1′-biphenyl]-3-yl)methoxy)-3-methylphenoxy)methyl)nicotinonitrile]	0.21 to 10	
Cc1c(COc2cc(OCc3cncc(C#N)c3)c(CN(CCO)CCCO)cc2Cl)cccc1-c1cccc(CN(C)CCN2CCS(=O)(=O)CC2)c1C [Example 4085, 5-((4-chloro-5-((3′-(((2-(1,1-dioxidothiomorpholino)ethyl)(methyl)amino)methyl)-2,2′-dimethyl-[1,1′-biphenyl]-3-yl)methoxy)-2-(((2-hydroxyethyl)(3-hydroxypropyl)amino)methyl)phenoxy)methyl)nicotinonitrile]	10 to 100	
CC(=O)N[C@@H]1CCN(CCCOc2cccc(-c3cccc(COc4cc(OCc5cncc(C#N)c5)c(CO)cc4Cl)c3C)c2C)C1 [Example 2276, N-((3R)-1-(3-(3′-((2-chloro-5-((5-cyanopyridin-3-yl)methoxy)-4-(hydroxymethyl)phenoxy)methyl)-2,2′-dimethylbiphenyl-3-yloxy)propyl)pyrrolidin-3-yl)acetamide]	0.21 to 10	
Cc1c(COc2cc(OCc3cncc(C#N)c3)c(CN3CCCC[C@H]3C(=O)O)cc2Cl)cccc1-c1cccc(OCCCNCCc2ncn(C)c2Cl)c1C [Example 2231, (2S)-1-(5-chloro-4-((3′-(3-(2-(5-chloro-1-methyl-1H-imidazol-4-yl)ethylamino)propoxy)-2,2′-dimethylbiphenyl-3-yl)methoxy)-2-((5-cyanopyridin-3-yl)methoxy)benzyl)piperidine-2-carboxylic Acid]		12
Cc1c(COc2cc(OCc3cncc(C#N)c3)c(CN[C@](C)(CO)C(=O)O)cc2Cl)cccc1-c1cccc(OCCCN2CCCCC2)c1Cl [Example 2016, (R)-2-((5-chloro-4-((2′-chloro-2-methyl-3′-(3-(piperidin-1-yl)propoxy)-[1,1′-biphenyl]-3-yl)methoxy)-2-((5-cyanopyridin-3-yl)methoxy)benzyl)amino)-3-hydroxy-2-methylpropanoic Acid]	0.21 to 10	

The next lines start with the values.

IC50 (value given as range class) [nM]	IC50 (numeric IC50) [nM]	SMILES
0.21 to 10		Cc1c(COc2cc(OCc3cncc(S(C)(=O)=O)c3)c(CN[C@H](CO)C(=O)O)cc2Cl)cccc1-c1cccc(OCCCN2CCC(O)(C(=O)O)CC2)c1C [Example 1040, (R)-1-(3-((3′-((4-(((1-carboxy-2-hydroxyethyl)amino)methyl)-2-chloro-5-((5-(methylsulfonyl)pyridin-3-yl)methoxy)phenoxy)methyl)-2,2′-dimethyl-[1,1′-biphenyl]-3-yl)oxy)propyl)-4-hydroxypiperidine-4-carboxylic Acid]
0.21 to 10		COC(=O)C1(O)CCN(CCCOc2cccc(-c3cccc(COc4cc(OCc5cncc(S(C)(=O)=O)c5)c(CN[C@@](C)(CO)C(=O)O)cc4Cl)c3C)c2C)CC1 [Example 1039, (S)-2-((5-chloro-4-((3′-(3-(4-hydroxy-4-(methoxycarbonyl)piperidin-1-yl)propoxy)-2,2′-dimethyl-[1,1′-biphenyl]-3-yl)methoxy)-2-((5-(methylsulfonyl)pyridin-3-yl)methoxy)benzyl)amino)-3-hydroxy-2-methylpropanoic Acid]
0.21 to 10		Cc1c(COc2cc(OCc3cccc(C#N)c3)c(CN3CCCC[C@H]3C(=O)O)cc2Cl)cccc1-c1cccc(OCCCN2[C@@H]3CC[C@H]2COC3)c1C [Example 3055, (S)-1-(4-((3′-(3-((1R,5S)-3-oxa-8-azabicyclo[3.2.1]octan-8-yl)propoxy)-2,2′-dimethyl-[1,1′-biphenyl]-3-yl)methoxy)-5-chloro-2-((3-cyanobenzyl)oxy)benzyl)piperidine-2-carboxylic Acid]
0.21 to 10		Cc1c(COc2cc(OCc3cncc(S(C)(=O)=O)c3)c(CN3CCCC[C@H]3C(=O)O)cc2Cl)cccc1-c1cccc(OCCCN2C[C@H](O)C[C@H]2C(=O)O)c1Cl [Example 1081, (S)-1-(4-((3′-(3-((2S,4R)-2-carboxy-4-hydroxypyrrolidin-1-yl)propoxy)-2′-chloro-2-methyl-[1,1′-biphenyl]-3-yl)methoxy)-5-chloro-2-((5-(methylsulfonyl)pyridin-3-yl)methoxy)benzyl)piperidine-2-carboxylic Acid]
0.21 to 10		Cc1c(COc2cc(OCc3cncc(C#N)c3)c(CN(C)C(C)(CO)CO)cc2Cl)cccc1-c1cccc(OCCCN2CC[C@@H](O)C2)c1Cl [Example 2076, (R)-5-((4-chloro-5-((2′-chloro-3′-(3-(3-hydroxypyrrolidin-1-yl)propoxy)-2-methyl-[1,1′-biphenyl]-3-yl)methoxy)-2-(((1,3-dihydroxy-2-methylpropan-2-yl)(methyl)amino)methyl)phenoxy)methyl)nicotinonitrile]
0.21 to 10		Cc1c(COc2cc(OCc3cncc(C#N)c3)c(CN3CCCC[C@H]3C(=O)O)cc2Cl)cccc1-c1cccc(OCCCN2[C@@H]3CC[C@H]2CC(O)C3)c1C (stereo partly drawn) [Example 3048, (2S)-1-(5-chloro-2-((5-cyanopyridin-3-yl)methoxy)-4-((3′-(3-((1R,5S)-3-hydroxy-8-azabicyclo[3.2.1]octan-8-yl)propoxy)-2,2′-dimethyl-[1,1′-biphenyl]-3-yl)methoxy)benzyl)piperidine-2-carboxylic Acid]
0.21 to 10		Cc1c(COc2cc(OCc3cncc(C#N)c3)c(CN(C)[C@@H](CO)C(=O)O)cc2Cl)cccc1-c1cccc(OCCCN2CC[C@@H](O)C2)c1C [Example 4136, N-(5-chloro-2-((5-cyanopyridin-3-yl)methoxy)-4-((3′-(3-((R)-3-hydroxypyrrolidin-1-yl)propoxy)-2,2′-dimethyl-[1,1′-biphenyl]-3-yl)methoxy)benzyl)-N-methyl-L-serine]
100 to 2000		COC(=O)[C@@H]1CCCCN1Cc1cc(Cl)c(OCc2cccc(-c3cccc(OCCCN4CCOCC4)c3C)c2C)cc1OCc1cccc(C#N)c1 [Example 3053, (S)-methyl 1-(5-chloro-2-((3-cyanobenzyl)oxy)-4-((2,2′-dimethyl-3′-(3-morpholinopropoxy)-[1,1′-biphenyl]-3-yl)methoxy)benzyl)piperidine-2-carboxylate, 2 TFA]
10 to 100		Cc1c(COc2cc(OCc3cncc(C#N)c3)c(CNC(C)(CO)CO)cc2Cl)cccc1-c1cccc(C(=O)N2CCCC2)c1C [Example 4039, 5-((4-chloro-2-(((1,3-dihydroxy-2-methylpropan-2-yl)amino)methyl)-5-((2,2′-dimethyl-3′-(pyrrolidine-1-carbonyl)-[1,1′-biphenyl]-3-yl)methoxy)phenoxy)methyl)nicotinonitrile]
